Experimental data from US20260027083A1, “USE OF PPAR AGONIST FOR IMPROVEMENT OF ENERGY METABOLISM” (NOVMETAPHARMA CO., LTD., priority 2022, published 2026).

What was measured:
[1] = molecular target: T1, PPARγ (Homo sapiens, UniProt P37231); experiment: Gal4 trans-activated luciferase reporter assay, PPARγ-LBD, HEK293; assay type: cell-based; settings: HEK293, drug treatment 24 hours, FIG. 1
T1 construct: three types of pcDNA5-GAL4 and pGALRE-luc containing PPARα-LBD, PPARβ/δ-LBD, or PPARγ-LBD; GAL4 (fusion partner from vector pcDNA5-GAL4); expressed in transfected cells; host or cells: HEK293
T1 sequence (P37231 238-503 limits assumed): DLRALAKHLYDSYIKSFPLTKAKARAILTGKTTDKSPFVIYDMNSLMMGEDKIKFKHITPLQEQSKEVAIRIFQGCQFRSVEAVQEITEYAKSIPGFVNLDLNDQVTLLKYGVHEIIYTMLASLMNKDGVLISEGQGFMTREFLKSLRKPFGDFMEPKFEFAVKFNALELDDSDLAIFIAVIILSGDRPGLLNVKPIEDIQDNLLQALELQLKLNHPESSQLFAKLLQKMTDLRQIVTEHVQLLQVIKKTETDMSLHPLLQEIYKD
Protocol: A plasmid was transformed into E. coli (DE3, Rosetta) and transfected into HEK293 cells and used. Referring to known literatures such as Kanno, Y. & Inouye, Y. J Toxicol Sci 35, 515-525 (2010), Zhao, S. et al. J Nat Prod 79, 879-885 (2016), etc., luciferase assay was performed on three types of pcDNA5-GAL4 and pGALRE-luc containing PPARα-LBD, PPARβ/δ-LBD, or PPARγ-LBD. pProEX-PPAR and pET-28a were used for purification of His-tagged recombinant hPPAR-LBD protein.
A HEK293 cell line was cultured in Dulbecco's Modified Eagle Medium (DMEM) containing 10% Fetal Bovine Serum (FBS) and 1% penicillin-streptomycin (P/S). […]
Transfected HEK293 cells were treated with a drug and after 24 hours, the cells were collected, resuspended in a luciferase lysis buffer (Promega, Madison, Wisconsin, USA), and incubated on ice for 10 minutes. […] Next, Firefly Luciferase (Fluc) and Renilla Luciferase (Rluc) activities were measured using the Dual Luciferase Reporter Assay System (Promega, Madison, Wisconsin, USA). […]
To confirm whether a compound represented by Chemical Formula 1 was a PPAR agonist, Gal4 trans-activated luciferase assay was performed. Specifically, HEK293 cells were transfected with the Gal4-luciferase reporter systems of PPARα, PPARβ/δ, and PPARγ, respectively, harvested after drug treatment for 24 hours, and then analyzed by Dual-Luciferase assay. […]

[2] = molecular target: T2, His-tagged recombinant human PPARβ/δ ligand binding domain (Homo sapiens, UniProt Q03181); experiment: CNBr-bead conjugation (pull-down) assay, hPPARβ/δ-LBD; settings: CNBr-coupled drug, positive control GW501516, FIG. 2
T2 construct: made in house; host or cells: E. coli (DE3, Rosetta)
T2 sequence (Q03181 211-439 limits assumed): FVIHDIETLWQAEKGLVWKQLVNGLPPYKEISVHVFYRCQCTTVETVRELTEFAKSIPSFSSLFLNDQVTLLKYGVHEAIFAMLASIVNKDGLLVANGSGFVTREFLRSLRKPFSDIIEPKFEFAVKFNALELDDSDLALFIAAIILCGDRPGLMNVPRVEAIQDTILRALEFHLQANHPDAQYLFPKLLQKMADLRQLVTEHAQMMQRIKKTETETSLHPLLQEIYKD
Protocol: A compound of the present invention represented by Chemical Formula 1 was synthesized by DAEJUNG Chemicals & Metals (Gyeonggi-do, Korea) (indicated as ‘D6’ in the drawing). WY14643, GW501516, and rosiglitazone were purchased from Sigma-Aldrich (St. Louis, MO, USA). The compounds were dissolved in dimethyl sulfoxide (DMSO), diluted in a culture solution, and used in the experiment. Cyanogen bromide (CNBr)-activated Sepharose 4B was purchased from Sigma-Aldrich (St. Louis, MO, USA). His-tagged recombinant human PPAR-ligand binding domain (LBD) was expressed in E. coli (DE3, Rosetta) and then purified and used. A His antibody was purchased from Cell Signaling Technology (Danvers, Massachusetts, USA). 3-Isobutyl-1-methylxanthine (IBMX), dexamethasone, bovine pancreatic insulin, and Oil Red O were purchased from Sigma-Aldrich (St. Louis, MO, USA). A PRO-PREP™ Protein Extraction Solution was purchased from iNtRON Biotechnology (iNtRON Biotech., Korea). […]
100 mg of CNBr-activated Sepharose 4B was added to an e-tube, and then the beads were activated by rotating with 1 ml of 1 mM HCl for 10 minutes at room temperature. […] Each e-tube was added with the drug and rotated overnight at 4° C., at which time the concentration was measured to be 20 μM. […] The supernatant was completely removed, and the pellet was detected by Western blotting. […]

**Q.** With `COc1ccc(-c2cc(=O)oc3c(C)c(OC(=O)[C@H](Cc4c[nH]c5ccccc45)NC(=O)OC(C)(C)C)ccc23)cc1` [Chemical Formula 1, [4-(4-methoxyphenyl)-8-methyl-2-oxochromen-7-yl] (2S)-3-(1H-indol-3-yl)-2-[(2-methylpropan-2-yl)oxycarbonylamino]propanoate] as the molecule, how does the “relative luciferase activity (Fluc to Rluc) for PPARγ” value [1] read?
**A.** dose-dependently increased

**Q.** What about the “conjugation (binding) to hPPARβ/δ-LBD, Western blotting” value [2] of the same molecule?
**A.** as much potently as a PPAR agonist used as a positive control
